Assay results: US7612065B2, “Inhibitors of c-JUN N-terminal kinases (JNK)” (priority 2007, dated 2009)

Molecular target: T1, JNK3 (Homo sapiens, UniProt P53779)
T1 construct: One such construct encodes amino acid residues Ser40-Glu402 of JNK3α1 and is preceded by Met and Gly residues; Met-Gly (initiation methionine plus glycine added for the NcoI site); made in house; host or cells: E. coli BL21 (DE3)
Experiment: JNK inhibition assay: spectrophotometric coupled-enzyme assay with activated JNK3
Assay type: biochemical
Conditions: activated JNK3 10 nM, 10 μM ATP, 200 μM EGF receptor peptide, 30° C., competitive inhibition model
Procedure, shortened: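 Activated (doubly phosphorylated, MKK7(DD)-activated) human JNK3, 10 nM, preincubated 10 min at 30 °C with inhibitor in 0.1 M HEPES pH 7.5, 10 mM MgCl2, 200 μM EGF receptor peptide, PK/LDH-coupled. Started with 10 μM ATP; A340 decrease followed at 30 °C. Ki from competitive inhibition model fit.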

T1 sequence (P53779 40-402): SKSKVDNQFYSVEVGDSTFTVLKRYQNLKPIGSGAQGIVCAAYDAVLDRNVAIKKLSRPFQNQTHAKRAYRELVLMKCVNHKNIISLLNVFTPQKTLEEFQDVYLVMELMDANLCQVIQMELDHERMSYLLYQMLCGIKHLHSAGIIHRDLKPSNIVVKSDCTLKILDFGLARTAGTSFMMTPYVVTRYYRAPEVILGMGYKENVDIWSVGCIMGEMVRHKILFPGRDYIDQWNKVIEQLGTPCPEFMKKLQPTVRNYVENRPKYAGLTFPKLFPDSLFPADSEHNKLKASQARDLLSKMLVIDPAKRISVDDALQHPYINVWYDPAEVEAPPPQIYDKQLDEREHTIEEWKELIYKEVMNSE

Row | Ki [nM] | Structure (SMILES)
1 | ≥ 1000 | C[C@H](NC(=O)OCC1c2ccccc2-c2ccccc21)C(=O)Nc1ccc2c(c1)N(Cc1cc(F)cc3c1OCOC3)C(=O)/C2=N\O [Compound 352]
2 | < 1000 | O=C(c1ccc2c(c1)/C(=N\O)C(=O)N2Cc1cc(F)cc2c1OCOC2)c1cccc(Cl)c1Cl [Compound 355]
3 | < 1000 | O=C(c1ccc2c(c1)/C(=N\O)C(=O)N2Cc1cc(F)cc2c1OCOC2)c1ccccc1Cl [Compound 356]
